Results taken from ChEMBL document CHEMBL1145851, “Novel substituted pyridinyl imidazoles as potent anticytokine agents with low activity against hepatic cytochrome P450 enzymes” (J Med Chem, 2003).
Activity calls are given as the source filed them. The calls are words filed in the database; no cut-off is given here.

What was measured:
MAP kinase p38 [1] = target: T1, MAP kinase p38 (Homo sapiens, UniProt O15264+Q15759+Q16539+P53778); test: Inhibitory activity against induction of IL-1-beta release in PBMCs; format: functional
MAP kinase p38 [2] = target: T1, MAP kinase p38; test: Inhibitory activity against TNF-alpha release in PBM cells; format: functional, cell-based
MAP kinase p38 [3] = target: T1, MAP kinase p38; test: Inhibitory activity against mitogen-activated protein kinase p38 at 10 e-4 to 10 e-8 M concentration; format: protein assay
MAP kinase p38 [4] = target: T1, MAP kinase p38; test: Inhibition of p38-related TNF-alpha release by whole blood cells at 10 e-4 to 10 e-8 M; format: functional
MAP kinase p38 [5] = target: T1, MAP kinase p38; test: Inhibition of p38-related IL1-beta release by whole blood cells at 10 e-4 to 10 e-8 M; format: functional
CYP2C19 = CYP2C19 (Homo sapiens, UniProt P33261); test: Inhibition of Cytochrome P450 2C19 at 10 uM; format: ADME
CYP2C19, sequence (P33261 whole entry): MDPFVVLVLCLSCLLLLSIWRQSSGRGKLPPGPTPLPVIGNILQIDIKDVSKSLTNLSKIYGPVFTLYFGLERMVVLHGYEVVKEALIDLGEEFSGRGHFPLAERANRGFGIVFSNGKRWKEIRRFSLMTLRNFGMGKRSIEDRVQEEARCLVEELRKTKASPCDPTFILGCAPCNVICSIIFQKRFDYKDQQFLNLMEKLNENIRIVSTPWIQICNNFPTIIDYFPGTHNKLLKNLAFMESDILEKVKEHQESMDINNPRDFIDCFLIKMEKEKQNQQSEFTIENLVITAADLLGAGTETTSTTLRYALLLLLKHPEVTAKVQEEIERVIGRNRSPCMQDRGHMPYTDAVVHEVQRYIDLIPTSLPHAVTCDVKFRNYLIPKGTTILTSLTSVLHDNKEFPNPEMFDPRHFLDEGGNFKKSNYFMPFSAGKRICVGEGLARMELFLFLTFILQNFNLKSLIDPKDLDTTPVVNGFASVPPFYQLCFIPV

CYP2C9 = CYP2C9 (Homo sapiens, UniProt P11712); test: Inhibition of Cytochrome P450 2C9 at 10 uM; format: ADME
CYP2C9, sequence (P11712 whole entry): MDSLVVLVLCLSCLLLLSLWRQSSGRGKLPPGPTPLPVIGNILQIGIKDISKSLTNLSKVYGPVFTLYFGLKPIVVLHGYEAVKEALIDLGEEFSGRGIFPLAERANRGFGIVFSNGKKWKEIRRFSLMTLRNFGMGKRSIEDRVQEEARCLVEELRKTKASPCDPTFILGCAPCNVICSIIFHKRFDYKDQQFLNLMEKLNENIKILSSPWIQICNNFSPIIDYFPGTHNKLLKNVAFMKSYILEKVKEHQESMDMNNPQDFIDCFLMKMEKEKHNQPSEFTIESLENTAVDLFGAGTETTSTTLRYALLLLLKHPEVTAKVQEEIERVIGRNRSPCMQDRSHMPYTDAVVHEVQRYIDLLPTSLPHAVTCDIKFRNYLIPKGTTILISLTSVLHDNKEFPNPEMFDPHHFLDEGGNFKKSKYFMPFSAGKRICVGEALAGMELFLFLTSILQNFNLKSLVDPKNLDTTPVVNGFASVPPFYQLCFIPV

CYP3A4 = CYP3A4 (Homo sapiens, UniProt P08684); test: Inhibition of Cytochrome P450 3A4 at 10 uM; format: ADME
CYP3A4, sequence (P08684 whole entry): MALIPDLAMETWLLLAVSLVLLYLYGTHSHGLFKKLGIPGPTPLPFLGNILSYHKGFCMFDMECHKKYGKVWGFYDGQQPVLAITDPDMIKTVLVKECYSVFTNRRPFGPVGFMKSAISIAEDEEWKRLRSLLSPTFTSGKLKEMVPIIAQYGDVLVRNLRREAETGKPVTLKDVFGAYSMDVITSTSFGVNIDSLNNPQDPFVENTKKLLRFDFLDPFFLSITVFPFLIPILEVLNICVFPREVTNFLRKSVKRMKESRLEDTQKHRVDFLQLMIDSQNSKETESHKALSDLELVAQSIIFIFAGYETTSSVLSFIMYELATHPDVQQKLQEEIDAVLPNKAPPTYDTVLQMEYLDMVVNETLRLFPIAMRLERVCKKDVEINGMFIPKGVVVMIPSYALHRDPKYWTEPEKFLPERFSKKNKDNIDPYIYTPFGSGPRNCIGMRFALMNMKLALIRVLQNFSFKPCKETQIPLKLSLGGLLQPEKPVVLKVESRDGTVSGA

CYP1A2 = target: T2, CYP1A2 (Homo sapiens, UniProt P05177); test: Inhibition of Cytochrome P450 1A2 at 10 uM; format: ADME
T2 sequence (P05177 whole entry): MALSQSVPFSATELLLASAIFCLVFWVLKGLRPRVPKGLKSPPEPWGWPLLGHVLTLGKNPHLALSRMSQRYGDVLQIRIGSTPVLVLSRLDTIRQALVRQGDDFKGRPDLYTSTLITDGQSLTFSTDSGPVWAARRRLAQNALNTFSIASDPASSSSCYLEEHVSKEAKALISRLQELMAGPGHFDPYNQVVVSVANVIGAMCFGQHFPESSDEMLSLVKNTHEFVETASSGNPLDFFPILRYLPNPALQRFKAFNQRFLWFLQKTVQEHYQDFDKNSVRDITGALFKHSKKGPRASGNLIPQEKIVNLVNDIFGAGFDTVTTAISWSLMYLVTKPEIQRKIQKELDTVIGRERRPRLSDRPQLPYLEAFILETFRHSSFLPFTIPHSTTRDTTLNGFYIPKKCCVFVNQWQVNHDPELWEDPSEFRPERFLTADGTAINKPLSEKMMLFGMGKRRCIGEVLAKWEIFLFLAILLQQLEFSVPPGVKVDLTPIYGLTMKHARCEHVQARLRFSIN

CYP2D6 = CYP2D6 (Homo sapiens, UniProt P10635); test: Inhibition of Cytochrome P450 2D6 at 10 uM; format: ADME
CYP2D6, sequence (P10635 whole entry): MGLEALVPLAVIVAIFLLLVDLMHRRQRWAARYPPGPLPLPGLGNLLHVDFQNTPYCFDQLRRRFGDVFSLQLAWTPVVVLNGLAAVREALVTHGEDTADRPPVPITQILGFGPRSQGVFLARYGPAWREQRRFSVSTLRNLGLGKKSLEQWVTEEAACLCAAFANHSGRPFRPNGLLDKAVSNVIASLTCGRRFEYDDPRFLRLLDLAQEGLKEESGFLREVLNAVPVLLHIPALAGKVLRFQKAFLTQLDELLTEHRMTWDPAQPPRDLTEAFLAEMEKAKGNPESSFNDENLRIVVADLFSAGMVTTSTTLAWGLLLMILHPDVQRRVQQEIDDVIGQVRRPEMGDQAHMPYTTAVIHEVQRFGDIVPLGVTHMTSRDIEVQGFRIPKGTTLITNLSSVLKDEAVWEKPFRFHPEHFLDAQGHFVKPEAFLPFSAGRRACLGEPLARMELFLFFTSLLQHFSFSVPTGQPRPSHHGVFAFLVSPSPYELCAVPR

MAP kinase p38 [6] = target: T1, MAP kinase p38; test: Inhibition of p38-related IL1-beta release by PBMC cells at 10 e-4 to 10 e-8 M (no activity); format: functional, cell-based
MAP kinase p38 [7] = target: T1, MAP kinase p38; test: Inhibition of p38-related TNF-alpha release by PBMC cells at 10 e-4 to 10 e-8 M (no activity); format: functional, cell-based

SMILES: COc1ccc(CNc2cc(-c3[nH]c(SCc4ccccc4)nc3-c3ccc(F)cc3)ccn2)cc1
- IC50 (MAP kinase p38 [1]): 180 nM
- IC50 (MAP kinase p38 [2]): 21000 nM

SMILES: CSc1nc(-c2ccc(F)cc2)c(-c2ccnc(NCc3ccccc3)c2)[nH]1
- IC50 (MAP kinase p38 [3]): 650 nM
- IC50 (MAP kinase p38 [1]): 108 nM
- IC50 (MAP kinase p38 [2]): 630 nM

SMILES: CSc1nc(-c2ccc(F)cc2)c(-c2ccnc(NCc3ccc(C)cc3)c2)[nH]1
- IC50 (MAP kinase p38 [3]): 830 nM
- IC50 (MAP kinase p38 [1]): 85 nM
- IC50 (MAP kinase p38 [2]): 670 nM

SMILES: Fc1ccc(-c2[nH]c(SCc3ccccc3)nc2-c2ccnc(NCc3ccccc3)c2)cc1
- IC50 (MAP kinase p38 [3]): 1420 nM
- IC50 (MAP kinase p38 [1]): 200 nM
- IC50 (MAP kinase p38 [2]): 3200 nM

SMILES: CC(Nc1cc(-c2[nH]c(SCc3ccccc3)nc2-c2ccc(F)cc2)ccn1)c1ccccc1 (stereo not given)
- IC50 (MAP kinase p38 [3]): 380 nM
- IC50 (MAP kinase p38 [1]): 45 nM
- IC50 (MAP kinase p38 [2]): 2700 nM

SMILES: CSc1nc(-c2ccc(F)cc2)c(-c2ccnc(N(C)Cc3ccccc3)c2)[nH]1
- IC50 (MAP kinase p38 [3]): 8700 nM
- IC50 (MAP kinase p38 [1]): 2700 nM
- IC50 (MAP kinase p38 [2]): 4600 nM

SMILES: CCCn1c(SC)nc(-c2ccc(F)cc2)c1-c1ccnc(NC(C)=O)c1
- IC50 (MAP kinase p38 [1]): 120 nM
- IC50 (MAP kinase p38 [2]): 490 nM

SMILES: CSc1nc(-c2ccc(F)cc2)c(-c2ccnc(N)c2)n1C
- IC50 (MAP kinase p38 [3]): 2300 nM
- IC50 (MAP kinase p38 [1]): 270 nM
- IC50 (MAP kinase p38 [2]): 3200 nM

SMILES: CCNc1cc(-c2c(-c3ccc(F)cc3)nc(SC)n2C)ccn1
- IC50 (MAP kinase p38 [3]): 700 nM
- IC50 (MAP kinase p38 [1]): 71 nM
- IC50 (MAP kinase p38 [2]): 600 nM
- IC50 (MAP kinase p38 [4]): 5000 nM
- IC50 (MAP kinase p38 [5]): 2000 nM

SMILES: CSc1nc(-c2ccc(F)cc2)c(-c2ccnc(NC(C)=O)c2)n1C
- inhibition at 10 µM (CYP2C19): 20.3%
- inhibition at 10 µM (CYP2C9): 27.6%
- inhibition at 10 µM (CYP3A4): 16.5%
- inhibition at 10 µM (CYP1A2): 32.4%
- inhibition at 10 µM (CYP2D6): 13.4%
- IC50 (MAP kinase p38 [3]): 500 nM
- IC50 (MAP kinase p38 [1]): 75 nM
- IC50 (MAP kinase p38 [2]): 1100 nM
- IC50 (MAP kinase p38 [4]): 12500 nM
- IC50 (MAP kinase p38 [5]): 10800 nM

SMILES: CSc1nc(-c2ccnc(O)c2)c(-c2ccc(F)cc2)n1C
- IC50 (MAP kinase p38 [1]): 7200 nM
- IC50 (MAP kinase p38 [2]): 31300 nM

SMILES: CSc1nc(-c2ccc(F)cc2)c(-c2ccnc(NC(C)c3ccccc3)c2)[nH]1 (stereo not given)
- inhibition at 10 µM (CYP2C19): 83.5%
- inhibition at 10 µM (CYP2C9): 79%
- inhibition at 10 µM (CYP3A4): 79.2%
- inhibition at 10 µM (CYP1A2): 66.7%
- inhibition at 10 µM (CYP2D6): 31.1%

SMILES: CSc1nc(-c2ccc(F)cc2)c(-c2ccnc(NCCc3ccccc3)c2)[nH]1
- IC50 (MAP kinase p38 [3]): 240 nM
- IC50 (MAP kinase p38 [1]): 31 nM
- IC50 (MAP kinase p38 [2]): 350 nM

SMILES: COc1cc(-c2[nH]c(SC)nc2-c2ccc(F)cc2)ccn1
- IC50 (MAP kinase p38 [1]): 150 nM
- IC50 (MAP kinase p38 [2]): 1900 nM

SMILES: CSc1nc(-c2ccc(F)cc2)c(-c2ccnc(N(Cc3ccccc3)Cc3ccccc3)c2)n1C
- NA (MAP kinase p38 [6]): inactive
- NA (MAP kinase p38 [7]): inactive

SMILES: CSc1nc(-c2ccc(F)cc2)c(-c2ccnc(Cl)c2)[nH]1
- inhibition at 10 µM (CYP2C19): 41.4%
- inhibition at 10 µM (CYP2C9): 65%
- inhibition at 10 µM (CYP3A4): 48.8%
- inhibition at 10 µM (CYP1A2): 92.6%
- inhibition at 10 µM (CYP2D6): 18.6%
- IC50 (MAP kinase p38 [1]): 350 nM
- IC50 (MAP kinase p38 [2]): 2200 nM

SMILES: C[S+]([O-])c1ccc(CSc2nc(-c3ccc(F)cc3)c(-c3ccncc3)[nH]2)cc1 (stereo not given)
- inhibition at 10 µM (CYP2C19): 73.6%
- inhibition at 10 µM (CYP2C9): 72.7%
- inhibition at 10 µM (CYP3A4): 87.1%
- inhibition at 10 µM (CYP1A2): 8.4%
- inhibition at 10 µM (CYP2D6): 71.8%
- IC50 (MAP kinase p38 [1]): 380 nM
- IC50 (MAP kinase p38 [2]): 1100 nM

SMILES: CSc1nc(-c2ccc(F)cc2)c(-c2ccnc(OC(C)C)c2)[nH]1
- inhibition at 10 µM (CYP2C19): 62.6%
- inhibition at 10 µM (CYP2C9): 67.5%
- inhibition at 10 µM (CYP3A4): 49.6%
- inhibition at 10 µM (CYP1A2): 83.2%
- inhibition at 10 µM (CYP2D6): < 0%
- IC50 (MAP kinase p38 [3]): 560 nM
- IC50 (MAP kinase p38 [1]): 47 nM
- IC50 (MAP kinase p38 [2]): 400 nM
- IC50 (MAP kinase p38 [4]): 7200 nM
- IC50 (MAP kinase p38 [5]): 2200 nM

SMILES: CSc1nc(-c2ccnc(NC(C)c3ccccc3)c2)c(-c2ccc(F)cc2)n1C (stereo not given)
- IC50 (MAP kinase p38 [3]): 27000 nM

SMILES: CCCn1c(SC)nc(-c2ccc(F)cc2)c1-c1ccnc(N)c1
- IC50 (MAP kinase p38 [1]): 500 nM
- IC50 (MAP kinase p38 [2]): 5400 nM

SMILES: CSc1nc(-c2ccc(F)cc2)c(-c2ccnc(O)c2)[nH]1
- IC50 (MAP kinase p38 [1]): 500 nM
- IC50 (MAP kinase p38 [2]): 3100 nM

SMILES: CSc1nc(-c2ccc(F)cc2)c(-c2ccncc2)n1C
- IC50 (MAP kinase p38 [3]): 2200 nM
- IC50 (MAP kinase p38 [1]): 450 nM
- IC50 (MAP kinase p38 [2]): 2200 nM
- IC50 (MAP kinase p38 [4]): 5100 nM
- IC50 (MAP kinase p38 [5]): 1080 nM
